# Residue numbers refer to the chain shown, from its start. Where two headings read alike, the source gives them in different places. *1 amine or outer side, *2 acyl side, *3 side chain or, on linkers, in order; H or OH if unused. Where a SMILES comes first, the peptide text is derived from it. Bridges are numbered along the chain shown (N, C = ends). Roman numbers before positions name the chains, in order. [ ]: non-standard residue; d: D form. Actinocin(9to1) = Cc1c2oc3c(C)ccc(C(=O)[*:1])c3nc-2c(C(=O)[*:2])c(N)c1=O; NMeV = CN[C@H](C(=O)O)C(C)C; Sar = CNCC(=O)O
# Experiments:
# Y723F topo I mutant = biological target: T1, Y723F topo I mutant (Homo sapiens, UniProt P11387, Y723F); experiment: Solid phase assay with catalytically inactive Y723F topo I mutant; type: biochemical; conditions: highest input of protein
# T1 construct: purchased TopoGEN, Inc. (Port Orange, Fla.); host or cells: baculovirus expression (Sf9)
# T1 sequence (P11387 1-765 Y723F): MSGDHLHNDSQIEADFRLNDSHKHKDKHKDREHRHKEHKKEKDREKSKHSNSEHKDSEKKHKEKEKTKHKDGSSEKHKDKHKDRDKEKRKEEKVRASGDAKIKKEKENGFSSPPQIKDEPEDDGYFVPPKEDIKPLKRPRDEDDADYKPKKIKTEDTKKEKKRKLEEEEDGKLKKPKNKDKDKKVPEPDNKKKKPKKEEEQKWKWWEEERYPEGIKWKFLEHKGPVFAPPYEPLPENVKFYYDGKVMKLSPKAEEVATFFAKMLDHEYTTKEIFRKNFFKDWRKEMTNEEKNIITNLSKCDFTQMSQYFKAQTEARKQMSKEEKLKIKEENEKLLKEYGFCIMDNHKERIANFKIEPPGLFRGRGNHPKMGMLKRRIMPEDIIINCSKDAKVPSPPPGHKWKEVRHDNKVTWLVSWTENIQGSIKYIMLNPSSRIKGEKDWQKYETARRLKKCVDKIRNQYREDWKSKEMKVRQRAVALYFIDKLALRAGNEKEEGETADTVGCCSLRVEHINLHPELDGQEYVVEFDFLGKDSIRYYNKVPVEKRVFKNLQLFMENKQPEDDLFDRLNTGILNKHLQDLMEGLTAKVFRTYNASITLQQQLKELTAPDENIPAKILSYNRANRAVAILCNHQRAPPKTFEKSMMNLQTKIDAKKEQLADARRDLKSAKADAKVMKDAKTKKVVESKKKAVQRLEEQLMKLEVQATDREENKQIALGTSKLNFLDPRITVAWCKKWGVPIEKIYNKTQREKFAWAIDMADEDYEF
# Protocol: The unbound enzyme was removed by aspirating off the initial binding solution followed by three washes (about 200 uL each) with cold PBS containing about 0.05% Tween-20 (PBS-T). […] Drugs were dissolved in DMSO and the final DMSO concentration in the reaction never exceeded about 1%. Reactions were incubated for about 1 hr at about 37° C. and terminated by the addition of about 0.1 vol of about 1% SDS (vol:vol) followed by a about 5 min incubation at about 37° C.
# human Topo I [1] = biological target: T2, human Topo I (Homo sapiens, UniProt P11387); experiment: Topo I cleavage complex formation / liquid reactions analysed on agarose-ethidium bromide gel
# T2 sequence (P11387 1-765): T1 sequence (P11387 1-765 Y723F) with F723Y
# human Topo I [2] = biological target: T2, human Topo I; experiment: Solid phase topo I HTS assay (His-tag topo I on nickel coated plates, pHOT1 DNA retention by Picogreen fluorescence); type: biochemical; set-up: The intact human topo I gene was cloned as a His-tag gene; purchased TopoGEN, Inc. (Port Orange, Fla.); host or cells: baculovirus-infected Spodoptera frugiperda Sf9 cells; conditions: for fold increase in DNA binding to wells due to CPT: 96 well
# Protocol: FIG. 8 is a flowchart depicting the model for solid phase Topo I screening. […] Free enzyme is washed out and pHOT1 supercoiled DNA is added in a topo I assay buffer. […] Free DNA is then washed out and the relative fluorescence is measured using Picogreen staining. […] The results are expressed as an “HTS Ratio” corresponding to the RFU of experimental to RFU of negative controls (no CPT).
# The unbound enzyme was removed by aspirating off the initial binding solution followed by three washes (about 200 uL each) with cold PBS containing about 0.05% Tween-20 (PBS-T). […] Drugs were dissolved in DMSO and the final DMSO concentration in the reaction never exceeded about 1%. Reactions were incubated for about 1 hr at about 37° C. and terminated by the addition of about 0.1 vol of about 1% SDS (vol:vol) followed by a about 5 min incubation at about 37° C. The reaction mixture was next aspirated and washed three times with about 200 uL PBS-T. Picogreen (about 100 ug/mL) was diluted in TE (about 1:400) and about 200 µl was added to each well followed by incubation in the dark for about 5 min. The relative fluorescence was measured at about 485 nm excitation and about 525 nm emission wavelength using a Tecan reader.
# In step 5, the readout (relative fluorescent units or RFU retained in the wells) is analyzed based on what is referred to as the ‘HTS Ratio’ (RFU Experimental/RFU in negative control).
# Free enzyme is washed out and pHOT1 supercoiled DNA is added in a topo I assay buffer. […] Free DNA is then washed out and the relative fluorescence is measured using Picogreen staining. […] The results are expressed as an “HTS Ratio” corresponding to the RFU of experimental to RFU of negative controls (no CPT).
# pHOT1 DNA = experiment: Nicking of pHOT1 DNA in the absence of topo I
# Protocol: . This may explain why some bifunctional alkylators are picked up by the assay. […]. Thus, about 5 compounds out of about 50 scored as potential topo I IFP at about 100 uM input of purified test drug (single asterisk, FIG. 10). A relatively high input of test drug concentrations to amplify false positives was; however, in a typical HTS experiment the concentrations would be much lower and would detect far fewer false leads. […].
# [3] = test drug about 100 uM, about 1.0 = minus CPT control, solid phase
structure (smiles),measurement,setting,value
"CC[C@@]1(O)C(=O)OCc2c1cc1n(c2=O)Cc2cc3ccccc3nc2-1 [CPT, Camptothecin]",CPT stimulation of DNA binding with mutant protein,Y723F topo I mutant,did not display any CPT stimulation
same,time for CPT induced complexes to reach a maximal stoichiometric value,human Topo I [1]; in solution,within a few minutes
same,magnitude of the increase in +CPT controls,human Topo I [2]; 96 well format (comparison),about 2.6 fold
same,magnitude of the increase in +CPT controls,human Topo I [2]; 384 well format,about 1.7 fold
same,fraction of well-bound DNA that is nicked form II,"human Topo I [2]; CPT reactions, about 512 units topo I, about 5 uM CPT, no-CPT about 20%",about 70%
same,fraction of well-bound DNA that is relaxed (Ir),"human Topo I [2]; CPT reactions, about 512 units topo I, about 5 uM CPT, no-CPT about 80%",about 30%
same,drug concentration dependency of solid phase readout,"human Topo I [2]; CPT titration, about 512 units topo I, about 100 ng DNA",did not display drug concentration dependency
same,magnitude of the increase in form II DNA in +CPT wells over no drug controls,"human Topo I [2]; DNA recovered from wells, gel analysis",2-3 fold
same,fold increase in DNA binding to wells due to CPT,"human Topo I [2]; about 16-64 units topo I, about 5 uM CPT",1.2-2 fold
same,fold increase in DNA binding to wells due to CPT,"human Topo I [2]; about >100 units topo I, about 5 uM CPT",2.5-2.7 fold
same,"mean relative fluorescence, +CPT","human Topo I [2]; high topo I inputs (about 1024, about 512 units), SD +/- about 153, -CPT mean about 1181",about 2877
same,time course of CPT induced complexes,human Topo I [2]; solid phase,continue to accumulate over several hours
same,"relative fluorescence (RFU) of a typical reaction, + control","human Topo I [2]; typical reaction, - control about 2000",about 4000 fluorescent units
"Cc1c2oc3c(C)ccc(C(=O)N[C@@H]4C(=O)N[C@H](C(C)C)C(=O)N5CCC[C@H]5C(=O)N(C)CC(=O)N(C)[C@@H](C(C)C)C(=O)O[C@@H]4C)c3nc-2c(C(=O)N[C@@H]2C(=O)N[C@H](C(C)C)C(=O)N3CCC[C@H]3C(=O)N(C)CC(=O)N(C)[C@@H](C(C)C)C(=O)O[C@@H]2C)c(N)c1=O [Dactinomycin] (I: T[dV]P[Sar][NMeV] / II: T[dV]P[Sar][NMeV]; ester I:1-I:C, II:1-II:C; linker I:N-II:N via Actinocin(9to1))","HTS Ratio (RFU experimental / RFU negative control, no CPT)",human Topo I [2]; [3],about 1.4
CCc1c2c(nc3ccc(OC(=O)N4CCC(N5CCCCC5)CC4)cc13)-c1cc3c(c(=O)n1C2)COC(=O)[C@]3(O)CC [Irinotecan],"HTS Ratio (RFU experimental / RFU negative control, no CPT)",human Topo I [2]; [3],about 1.4
N[C@@H](Cc1ccc(N(CCCl)CCCl)cc1)C(=O)O [Melphalan],"HTS Ratio (RFU experimental / RFU negative control, no CPT)",human Topo I [2]; [3],1.2-1.3
CNNCc1ccc(C(=O)NC(C)C)cc1 [Procarbazine],"HTS Ratio (RFU experimental / RFU negative control, no CPT)",human Topo I [2]; [3],about 1.65
O=C(c1ccc(OCCN2CCCCC2)cc1)c1c(-c2ccc(O)cc2)sc2cc(O)ccc12 [Raloxifene],"HTS Ratio (RFU experimental / RFU negative control, no CPT)","human Topo I [2]; test drug about 100 uM, about 1.0 = minus CPT control, solid phase, listed as Reloxifene",about 2.0
CC/C(=C(\c1ccccc1)c1ccc(OCCN(C)C)cc1)c1ccccc1 [Tamoxifen],induction of topo I cleavages,"human Topo I [1]; data not shown, less than with CPT",induced topo I cleavages
Oc1ncc(N(CCCl)CCCl)c(O)n1 [Uracil mustard],single strand DNA nicks in pHOT1 DNA,pHOT1 DNA,induce single strand DNA nicks
same,"HTS Ratio (RFU experimental / RFU negative control, no CPT)",human Topo I [2],about 1.1
O=C1c2c(O)ccc(O)c2C(=O)c2c(NCCNCCO)ccc(NCCNCCO)c21 [mitoxantrone],effect on DNA binding to bound topo I,human Topo I [2]; solid phase HTS,strongly reduce DNA binding

# From patent US20140106342A1, “METHOD OF ASSAYING DNA TOPOISOMERASES AND DNA BINDING PROTEINS USING HIGH THROUGHPUT SCREENING” (priority 2011, published 2014)
